From patent US20100144779A1, “Marine Alkalod Makaluvamines and Derivatives Thereof” (THE UAB RESEARCH FOUNDATION, priority 2007, published 2010)

Experiments:
Experiment in all cases: NCI60 cell line screen (SRB)
Format in all cases: cell-based, human
KM12 = conditions: KM12, Colon Cancer, 48 h
Procedure: (§1) This panel implements the NCI60 cell line screen, including leukemia, non-small cell lung cancer, colon cancer, central nervous system cancer, melanoma, ovarian cancer, renal cancer, prostate cancer and breast cancer. The cell lines tested are specified in Table 3.
(§2) Generally, the human tumor cell lines of the cancer screening panel are grown in RPMI 1640 medium containing 5% fetal bovine serum and 2 mM L-glutamine. For a typical screening experiment, cells are inoculated into 96 well microtiter plates in 100 μL at plating densities ranging from 5,000 to 40,000 cells/well depending on the doubling time of individual cell lines. After cell inoculation, the microtiter plates are incubated at 37° C., 5% CO2, 95% air and 100% relative humidity for 24 h prior to addition of experimental drugs. After 24 h, two plates of each cell line are fixed in situ with TCA, to represent a measurement of the cell population for each cell line at the time of drug addition (Tz). Experimental drugs are solubilized in dimethyl sulfoxide at 400-fold the desired final maximum test concentration and stored frozen prior to use. At the time of drug addition, an aliquot of frozen concentrate is thawed and diluted to twice the desired final maximum test concentration with complete medium containing 50 μg/ml gentamicin. Additional four, 10-fold or ½ log serial dilutions are made to provide a total of five drug concentrations plus control. Aliquots of 100 μl of these different drug dilutions are added to the appropriate microtiter wells already containing 100 μl of medium, resulting in the required final drug concentrations.
(§3) Following drug addition, the plates are incubated for an additional 48 h at 37° C., 5% CO2, 95% air, and 100% relative humidity. For adherent cells, the assay is terminated by the addition of cold TCA. Cells are fixed in situ by the gentle addition of 50 μl of cold 50% (w/v) TCA (final concentration, 10% TCA) and incubated for 60 minutes at 4° C. The supernatant is discarded, and the plates are washed five times with tap water and air dried. Sulforhodamine B (SRB) solution (100 μl) at 0.4% (w/v) in 1% acetic acid is added to each well, and plates are incubated for 10 minutes at room temperature. After staining, unbound dye is removed by washing five times with 1% acetic acid and the plates are air dried. Bound stain is subsequently solubilized with 10 mM trizma base, and the absorbance is read on an automated plate reader at a wavelength of 515 nm. For suspension cells, the methodology is the same except that the assay is terminated by fixing settled cells at the bottom of the wells by gently adding 50 μl of 80% TCA (final concentration, 16% TCA). Using the seven absorbance measurements (time zero, Tz, control growth, (control), and test growth in the presence of drug at the five concentration levels (Ti)), the percentage growth is calculated at each of the drug concentrations levels. Percentage growth inhibition is calculated as:
(§4) [(Ti−Tz)/(C−Tz)]×100 for concentrations for which Ti>/=Tz
(§5) [(Ti−Tz)/Tz]×100 for concentrations for which Ti<Tz.

SR = conditions: Leukemia, 48 h
Procedure: as §1, §2, §3, §4, §5

NCI-H226 = conditions: NCI-H226, Non-Small Cell Lung Cancer, 48 h
Procedure: as §1, §2, §3, §4, §5

MDA-MB-231/ATCC = conditions: Breast Cancer, 48 h
Procedure: as §1, §2, §3, §4, §5

SF-268 = conditions: SF-268, CNS Cancer, 48 h
Procedure: as §1, §2, §3, §4, §5

NCI-H23 = conditions: NCI-H23, Non-Small Cell Lung Cancer, 48 h
Procedure: as §1, §2, §3, §4, §5

T-47D = conditions: Breast Cancer, 48 h
Procedure: as §1, §2, §3, §4, §5

SW-620 = conditions: SW-620, Colon Cancer, 48 h
Procedure: as §1, §2, §3, §4, §5

SN12C = conditions: Renal Cancer, 48 h
Procedure: as §1, §2, §3, §4, §5

EKVX = conditions: Non-Small Cell Lung Cancer, 48 h
Procedure: as §1, §2, §3, §4, §5

RPMO-8226 = conditions: RPMO-8226, Leukemia; 48 h
Procedure: as §1, §2, §3, §4, §5

UACC-257 = conditions: UACC-257, Melanoma, 48 h
Procedure: as §1, §2, §3, §4, §5

SNB-19 = conditions: SNB-19, CNS Cancer, 48 h
Procedure: as §1, §2, §3, §4, §5

HT-29 = conditions: HT-29, Colon Cancer, 48 h
Procedure: as §1, §2, §3, §4, §5

PC-3 = conditions: PC-3, Prostate Cancer, 48 h
Procedure: as §1, §2, §3, §4, §5

BT-459 = conditions: BT-459, Breast Cancer, 48 h
Procedure: as §1, §2, §3, §4, §5

NCI-H552 = conditions: NCI-H552, Non-Small Cell Lung Cancer, 48 h
Procedure: as §1, §2, §3, §4, §5

NCI-H460 = conditions: NCI-H460, Non-Small Cell Lung Cancer, 48 h
Procedure: as §1, §2, §3, §4, §5

UO-31 = conditions: UO-31, Renal Cancer, 48 h
Procedure: as §1, §2, §3, §4, §5

HCT-15 = conditions: HCT-15, Colon Cancer, 48 h
Procedure: as §1, §2, §3, §4, §5

OVCAR4 = conditions: OVCAR4, Ovarian Cancer, 48 h
Procedure: as §1, §2, §3, §4, §5

LOX IMVI = conditions: Melanoma, 48 h
Procedure: as §1, §2, §3, §4, §5

K-562 = conditions: K-562, Leukemia, 48 h
Procedure: as §1, §2, §3, §4, §5

HS 578T = conditions: Breast Cancer, 48 h
Procedure: as §1, §2, §3, §4, §5

OVCAR3 = conditions: OVCAR3, Ovarian Cancer, 48 h
Procedure: as §1, §2, §3, §4, §5

CAKI-1 = conditions: CAKI-1, Renal Cancer, 48 h
Procedure: as §1, §2, §3, §4, §5

CNC1=CC2=NCCc3c[nH]c(c32)C1=O [Compound 4a]
GI50 (KM12): 3.83 µM
GI50 (SR): 3.12 µM
GI50 (NCI-H226): 11.1 µM
GI50 (MDA-MB-231/ATCC): 3.13 µM
GI50 (SF-268): 2.09 µM
GI50 (NCI-H23): 2.46 µM
GI50 (T-47D): 3.5 µM
GI50 (SW-620): 3.1 µM
GI50 (SN12C): 3.06 µM
GI50 (EKVX): 2.2 µM
GI50 (RPMO-8226): 5.99 µM
GI50 (UACC-257): 2 µM
GI50 (SNB-19): 3.43 µM
GI50 (HT-29): 2.54 µM
GI50 (PC-3): 3.61 µM
GI50 (BT-459): 7.38 µM
GI50 (NCI-H552): 4.13 µM
GI50 (NCI-H460): 2.16 µM
GI50 (UO-31): 14.6 µM
GI50 (HCT-15): 5.09 µM
GI50 (OVCAR4): 1.08 µM
GI50 (LOX IMVI): 3.43 µM
GI50 (K-562): 2.19 µM
GI50 (HS 578T): 10.2 µM
GI50 (OVCAR3): 6.3 µM
GI50 (CAKI-1): 1.95 µM

COc1ccc(CCNC2=CC3=NCCc4c[nH]c(c43)C2=O)cc1OC.O=C(O)C(F)(F)F [Compound 20]
GI50 (KM12; Homo sapiens): 2.23 µM
GI50 (SR; Homo sapiens): 5.69 µM
GI50 (NCI-H226; Homo sapiens): 1.06 µM
GI50 (MDA-MB-231/ATCC; Homo sapiens): 3.21 µM
GI50 (SF-268; Homo sapiens): < 0.01 µM
GI50 (NCI-H23; Homo sapiens): 2 µM
GI50 (T-47D; Homo sapiens, T47D): 2.49 µM
GI50 (SW-620; Homo sapiens): 3.09 µM
GI50 (SN12C; Homo sapiens): 3.07 µM
GI50 (EKVX; Homo sapiens): 3.08 µM
GI50 (UACC-257; Homo sapiens): 3.07 µM
GI50 (SNB-19; Homo sapiens): 3.26 µM
GI50 (HT-29; Homo sapiens): 2.54 µM
GI50 (PC-3; Homo sapiens): 7.62 µM
GI50 (BT-459; Homo sapiens): 4.53 µM
GI50 (NCI-H552; Homo sapiens): 2.24 µM
GI50 (NCI-H460; Homo sapiens): 1.42 µM
GI50 (UO-31; Homo sapiens): 7.11 µM
GI50 (HCT-15; Homo sapiens): 2.65 µM
GI50 (OVCAR4; Homo sapiens, OVCAR-4): 1.16 µM
GI50 (LOX IMVI; Homo sapiens): 2.34 µM
GI50 (K-562; Homo sapiens, K562): 16.9 µM
GI50 (HS 578T; Homo sapiens): 5.04 µM
GI50 (OVCAR3; Homo sapiens, OVCAR-3): 1.61 µM
GI50 (CAKI-1; Homo sapiens): 2.67 µM
